“And” between values parts separate entries of the source, which are not always exact repeats. Equal values may be shown once. Where a name gives a salt, the structure may show the parent alone. Read-outs that look alike come from different tables or passages of the source.
Legend:
MRSA = experiment: MIC, 96-well CAMHB, 10^5 to 10^2 CFU/mL in 24 hours; assay type: cell-based, Staphylococcus aureus; conditions: Staphylococcus aureus, MRSA
Method in brief: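 Compound exposure was 24 h at 37 °C in CAMHB with an inoculum of ~5×10^5 CFU/mL from a 0.5 McFarland; eight replicates per concentration.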

A. baumannii biofilms = experiment: MBEC, MBEC Inoculation Tray (Innovotech), to 10^2 CFU/peg in 24 hours; assay type: cell-based, Acinetobacter baumannii
Description: To determine the MBEC of each polyamine compound, the MBEC Inoculation Tray by Innovotech, formerly known as the Calgary biofilm device, was used. Within this device, biofilms grow on the surface of polystyrene pegs, 96 of which are attached to a lid. These pegs are inserted into a flat bottom 96-well plate. In this instance, the MBEC of a molecule was defined as the concentration of compound (in μg/mL) required to reduce 10^5 or 10^6 CFU/peg (biofilm levels varied by isolate) to 10^2 CFU/peg in a 24-hour period.
Following the manufacturer's guidelines, biofilms were grown on the surface of each peg by first making a 0.5 McFarland of each isolate. The 0.5 McFarland was diluted 1:100 in CAMHB. Into each well of a flat bottom 96-well plate, 150 μL of broth were pipetted. The plate was shaken at 100 rpm for 24 hours (P. aeruginosa and A. baumannii) or 48 hours (MRSA). The pegs were then placed into a separate flat bottom 96-well plate for 10 seconds with 200 μL of phosphate buffered saline (PBS) in each well to remove nonadherent cells. The lid was then placed into a 96-well plate that contained varying concentrations of antimicrobial with 200 μL per well. The plate was incubated for 24 hours at 37° C. after which time 100 μL of broth were plated on TSA. TSA plates were incubated 24 hours at 37° C. and the number of CFU counted to calculate the CFU/peg. In this instance, the MBEC was defined as the concentration of antimicrobial required to reduce 10^5 or 10^6 CFU/peg to 10^2 CFU/peg in a 24 hour period.
To determine the MBEC, the MBEC Inoculation Tray by Innovotech, formerly known as the Calgary biofilm device, is used. Within this device, biofilms grow on the surface of polystyrene pegs, 96 of which are attached to a lid. These pegs are inserted into a flat bottom 96-well plate. In this instance, the MBEC of a molecule is defined as the concentration of compound required to reduce approximately 10^6 CFU/peg to approximately 10^2 CFU/peg in a 24-hour period.
Following the manufacturer's guidelines, biofilms are grown on the surface of each peg by first making a 0.5 McFarland of A. baumannii. The 0.5 McFarland is diluted 1:100 in CAMHB broth. Into each well of a flat bottom 96-well plate, 150 μL of broth is pipetted. The plate is shaken at 100 rpm for 24 hours. The pegs are placed into a separate flat bottom 96-well plate for 10 seconds with 200 μL of phosphate buffered saline (PBS) in each well to remove nonadherent cells. The lid is placed into a 96-well plate that contains varying concentrations of antimicrobial with 200 μL of broth per well. The plate is incubated for 24 hours at 37° C. after which time 100 μL of broth is plated on TSA. TSA plates is incubated 24 hours at 37° C. and the number of CFU counted to calculate the CFU/peg.
MBEC data were collected using the MBEC Inoculation Tray by Innovotech. The MBEC was defined in these preliminary results as the concentration of antimicrobial required to reduce 10^5 or 10^6 CFU/peg to 10^2 CFU/peg in a 24-hour period.

Compound | MBEC μg/mL (μM) A. baumannii (A. baumannii biofilms; Table 4) [µg/mL] | MBEC μg/mL (μM) A. baumannii (A. baumannii biofilms; Table 4, value in parentheses) | further results
NCCCNCCCNCc1ccccc1 [CZ-7, benzylnorspermidine] | >500 | (>2,259) μM | MIC (MRSA; Table 3A c1, read-out: MICs (μg/mL): MRSA (first MRSA column)): > 500 µg/mL; MIC (MRSA; Table 4, value in parentheses, read-out: MIC μg/mL (μM) MRSA): > 2260 µM; MIC (MRSA; Table 4, read-out: MIC μg/mL (μM) MRSA): > 500 µg/mL; MIC (MRSA; Table 5, read-out: MIC (MRSA)): > 100 µM
NCCCNCCCNCc1cccc(CNCCCNCCCN)c1 [CZ-25, N^1,N^1′-(1,3-phenylenebis(methylene))bis(N3-(3-ammoniopropyl)propane-1,3-diaminium) chloride] | 450 |  | 
NCCCNCCCNCc1cc(CNCCCNCCCN)cc(CNCCCNCCCN)c1 [CZ-52, N^1,N^1′,N^1″-(benzene-1,3,5-triyltris(methylene))tris(N^3-(3-aminopropyl)propane-1,3-diamine), hydrochloride salt] | >500 |  | 
NCCCNCCCNCc1cc(CNCCCNCCCN)cc(-c2ccccc2)c1 [CZ-58, N^1,N^1′-([1,1′-biphenyl]-3,5-diylbis(methylene))bis(N^3-(3-ammoniopropyl)propane-1,3-diaminium) chloride] | >50 | (>113) μM | 
CC(C)CNCCCNCCCNCc1cc(CNCCCNCCCNCC(C)C)cc(-c2ccccc2)c1 [CZ-86, N^1,N^1′-([1,1′-biphenyl]-3,5-diylbis(methylene))bis(N^3-(3-(isobutylamino)propyl)propane-1,3-diamine), hydrochloride salt] |  |  | MIC (MRSA; read-out: MIC (MRSA)): < 50 µM
CN[C@H](CC(C)C)C(=O)N[C@H]1C(=O)N[C@@H](CC(N)=O)C(=O)N[C@H]2C(=O)N[C@H]3C(=O)N[C@H](C(=O)N[C@H](C(=O)O)c4cc(O)cc(O)c4-c4cc3ccc4O)[C@H](O)c3ccc(c(Cl)c3)Oc3cc2cc(c3O[C@@H]2O[C@H](CO)[C@@H](O)[C@H](O)[C@H]2O[C@H]2C[C@](C)(N)[C@H](O)[C@H](C)O2)Oc2ccc(cc2Cl)[C@H]1O [vancomycin, reference compound] |  |  | MIC (MRSA; read-out: MIC μg/mL (μM) MRSA): 10 µg/mL and 6.9 µM; MIC (MRSA; read-out: MICs (μg/mL): MRSA (first MRSA column)): 10 µg/mL
Polymyxin B sulfate [reference compound] | 50 | (36) μM | 

From US10440955B2, “Methods comprising a biocidal polyamine” (Curza Global, LLC, priority 2013, dated 2019)
